Data on 3 compounds can be found in patent publication US4766119A, “Antispasmodic alkylated aminothioester derivatives” (United Pharmaceuticals, Inc., priority 1985, dated 1988).

SMILES strings stand for the structures. Where a name gives a salt, the structure may show the parent alone.

Data set [1] deals with muscarinic receptors (rabbit lung tissue). The class given is binding, rabbit (New Zealand White). The settings on record: 0.1 nM [3H]QNB, 37° C., 60 min, pH 7.4.
In data set [2] the test system is bethanechol-contracted rabbit bladder strips. The data set is described as follows: relaxation of bethanechol-contracted rabbit urinary bladder strip (organ bath). The class given is cell-based. Particulars: 250 μM bethanechol; for inhibition at 100 µM / inhibition at 10 µM / inhibition at 1 µM / inhibition at 0.1 µM / inhibition at 0.01 µM: Oryctolagus cuniculus, maximal relaxation = pre-bethanechol tone, read-out: % of maximum relaxation. How it is done:
The pharmacological actions of two anti-spasmodic compounds were studied in a rabbit urinary bladder strip preparation. In general, longitudinal strips were prepared from the base of freshly isolated rabbit bladders and were then suspended under near-physiological conditions in tissue baths. The strips were attached to force transducers and both contractile and relaxant activity was measured. To measure the relaxant effects on the anti-spasmodic compounds on previously-contracted bladder strips, the strips were initially exposed to the muscarinic receptor agonist bethanechol and allowed to reach a steady level of contractile activity for 20 minutes. At this point cumulative dose-responses to the various compounds were recorded. The rabbit abdomens were opened through a vertical midline incision. The bladder and urethra were dissected free of all surrounding tissues, removed and placed in aerated (95% O2 :5% CO2) Kreb's-bicarbonate buffer (pH: 7.4) of the following composition ([…]): KCl 4.6, CaCl2.2H2 O 2.5, KH2 PO4 1.2, MgSO4.7H2 O 1.2, NaCl 118.2, NaHCO3 24.8, and glucose 10.0. Longitudinal muscle strips were prepared from the bladder base (approximately 6 mm×4 mm) and suspended in an organ bath containing Kreb's buffer (37° C.) which was continuously aerated with O2 :CO2 (95%:5%). Tissues were allowed to equilibrate to a tension of 2 gm for sixty minutes during which time buffer was replaced at 20 minute intervals. The contractile and relaxant responses of the muscle strips were measured isometrically with a Statham UC3 force-displacement transducer and recorded on an Electronics for Medicine DR8 oscillographic recorder. Bethanechol was employed as the representative cholinergic agonist and, following equilibration, was added to the baths for a final concentration of 250 μM. The tissues were allowed 20 minute to achieve a maintained level of contraction in response to bethanechol and, at this point, cumulative dose-response measurements for two anti-spasmodic compounds were started at concentrations ranging from 10^-8 M to 10^-4 M. Solutions were added in volumes up to 100 μl and were prepared fresh each day by dissolving them in distilled: deionzed water. Responses were measured 5 minutes following any particular cumulative addition and were expressed as a percentage of maximal relaxation (e.g. maximal relaxation is the baseline or pre-bethanechol level of muscle tone).
Dose responses, measured from the standard bethanechol-contracted rabbit bladder strips, at various concentrations of 2-ethyl-butyrol-thio-S-(2-diethylaminoethyl)-ester [CH3 CH2)2 --CH--CO--S--(CH2)2 --N--(CH2 CH3)2.HCl], are presented in Table I:
Dose responses, measured from the standard bethanechol-contracted rabbit bladder strips, at various concentrations of 2-propyl-pentanoyl-thiol-S-(2-diethylaminoethyl)-ester.HCl [(CH3 CH2 CH2)2 --CH--CO--S--(CH2)2 --N--(CH2 CH3)2.HCl] are presented in Table II: […]

Data set [3] has as its system smooth muscle (gastrointestinal tract, biliary tract, ureter and uterus). The settings on record: cited from earlier work.
The subject of data set [4] is salivary and sweat glands, GI glands, the eye or the cardiovascular system. The settings on record: cited from earlier work.

For the compound `CCC(CC)C(=O)SCCN(CC)CC` [2-ethyl-butyryl-thio-S-(2-diethylaminoethyl)ester.HCl], the “% inhibition of 3H[QNB] binding (at a concentration of 1.0 × 10^-5 M)” value in data set [1] was found to be 64%. In addition, in data set [2] (10^-4 moles/liter), the “Decrease in force of contraction of rabbit bladder strip” value (from here on “Decrease in force”) amounted to 0.54 gm, the “Increase in length of rabbit bladder strip” value (“Increase in length” below) was found to be 1.3 cm and the inhibition at 100 µM was determined as 37%. In addition, in data set [2] (10^-5 moles/liter), the “Decrease in force” value is 0.29 gm, the “Increase in length” value is listed as 0.7 cm and the inhibition at 10 µM was 20%. For the same compound, in data set [2] (10^-6 moles/liter), the “Decrease in force” value is 0.25 gm, the “Increase in length” value is 0.6 cm and the inhibition at 1 µM is 17.1%. Moreover, in data set [2] (10^-7 moles/liter), the “Decrease in force” value came to 0.17 gm, the “Increase in length” value turned out to be 0.4 cm and the inhibition at 0.1 µM was 11.4%. Moreover, in data set [2] (10^-8 moles/liter), the “Decrease in force” value came to 0.13 gm, the “Increase in length” value is 0.3 cm and the inhibition at 0.01 µM was 8.6%.

Consider `CCCC(CCC)C(=O)SCCN(CC)CC` [2-propyl-pentanoyl-thio-S-(2-diethylaminoethyl)-ester.HCl], for which the “% inhibition of 3H[QNB] binding (at a concentration of 1.0 × 10^-5 M)” value in data set [1] is 95%. In data set [2] (10^-4 moles/liter), the “Decrease in force” value was 0.81 gm, the “Increase in length” value was 2.9 cm and the inhibition at 100 µM was 100%. Further, in data set [2] (10^-5 moles/liter), the “Decrease in force” value was 0.31 gm, the “Increase in length” value was determined as 1.1 cm and the inhibition at 10 µM is 100%. Also, in data set [2] (10^-6 moles/liter), the “Decrease in force” value was 0.0 gm, the “Increase in length” value was found to be 0.0 cm and the inhibition at 1 µM was found to be 0%. For the same compound, in data set [2] (10^-7 moles/liter), the “Decrease in force” value is given as 0.0 gm, the “Increase in length” value came to 0.0 cm and the inhibition at 0.1 µM was 0%. Also, in data set [2] (10^-8 moles/liter), the “Decrease in force” value was determined as 0.0 gm, the “Increase in length” value is reported as 0.0 cm and the inhibition at 0.01 µM came out at 0%.

For the compound `CCN(CC)CCSC(=O)C(c1ccccc1)c1ccccc1` [Thiphenamil hydrochloride], the decrease of spasm result in data set [3] is “decrease spasm of the gastrointestinal tract, biliary tract, ureter and uterus”. Besides, the “characteristic atropinic side effects” value in data set [4] was “without producing characteristic atropinic side effects on salivary and sweat glands, GI glands, the eye or the cardiovascular system”.
